Measurements from US11667945B2, “Detection method and detection probe for colibactin and colibactin-producing bacteria” (priority 2017, dated 2023).
Where a SMILES comes first, the peptide text is derived from it. [ ]: non-standard residue; d: D form. The star is where a group is joined. Myristoyl = CCCCCCCCCCCCCC(=O)*; AMC = Cc1cc(=O)oc2cc(N*)ccc12

How the values were obtained:
[1] = test system: colibactin positive bacterium; experiment: Detection of colibactin positive bacterium using cultured fecal samples (Example 6); type: cell-based, Escherichia coli; details: colonies from human fecal samples, LB with 100 μM probe, 24 hours, λex 380 mm/λem 460 mm, compared with PCR
Experimental: Fecal samples obtained from human subjects were dissolved in water, applied to a plate comprising a MacConkey medium and cultured at 37° C. for 12 hours. The resultant red-purple colony was picked up, inoculated in LB liquid medium comprising 100 μM probe I and cultured for 24 hours. Fluorescence (λex 380 mm/λem 460 mm) was measured by a plate reader. These samples were checked for the presence or absence of a colibactin positive bacterium by a PCR method in the same manner as in Example 5 and the correlation with the fluorescence intensity generated from probe I was examined.

[2] = test system: colibactin-producing Escherichia coli; experiment: Assay using cultured Escherichia coli, colibactin-producing versus non-producing strains (Example 4); type: cell-based; details: probe 20 μM in LB medium, 37° C., 24 hours or more, particularly after extraction; producers 5263, 5491, Nissle vs non-producers 1246, 1649T
Experimental: As Escherichia coli not producing colibactin, 1246 strain and 1649T strain were used. As the colibactin-producing Escherichia coli, 5263 strain, 5491 strain and Nissle strain were used.
Escherichia coli were cultured overnight and seeded (20 μL) in LB medium (2 to 4 mL) and further a 20 mM DMSO solution of probe 1 was added thereto so as to obtain a final concentration of 20 μM (DMSO final concentration: 0.1%), and cultured at 37° C. and 100 rpm for 24 hours or more while shaking. After reaction, the reaction solution (200 μL) was taken and centrifuged. The supernatant (200 μL) was directly subjected to detection performed at λex 380 mm/λem 460 mm (unextracted). The reaction solution (200 μL) was newly taken and ethyl acetate (500 μL) was added thereto. After sufficiently suspended, the suspension was centrifuged. The ethyl acetate layer (450 μL) of the supernatant was recovered and concentrated. To the concentrate, milliQ water (200 μL) was added. The mixture was sufficiently suspended and centrifuged. The supernatant (200 μL) was subjected to detection (after extraction) performed at λex 380 mm/λem 460 mm.

[3] = test system: colibactin positive bacterium; experiment: Detection of colibactin positive bacterium among Escherichia coli separated from colorectal tissue samples (Example 5); type: cell-based; details: 100 μM probe in LB, 37° C., 24 hours, threshold 100; 100 PCR-positive and 100 PCR-negative samples
From the text: In this Example, detection of a colibactin positive bacterium was tried by applying probe I to Escherichia coli bacteria separated from colon tissue samples (n=100) in which colibactin biosynthetic genes had been detected by PCR methods and colon tissue samples (n=100) in which colibactin biosynthetic genes had not been detected.
Escherichia coli bacteria were separated by homogenizing a human colorectal tissue sample with physiological saline and smearing the homogenized sample onto a MacConkey plate medium, and culturing it. […] Based on the presence or absence of an amplified fragment as an index, a colibactin positive bacterium or not was evaluated.
To evaluate the sensitivity and accuracy for detecting a colibactin positive bacterium by probe I, 100 Escherichia coli bacterium samples were prepared by separating Escherichia coli bacterium from colon tissue samples in which a colibactin positive bacterium was detected by the above PCR method; and 100 Escherichia coli bacterium samples separated were prepared by separating Escherichia coli bacterium from colon tissue samples in which a colibactin positive bacterium was not detected by the above PCR method. […] Measurement at λex 380 mm/λem 460 mm was carried out by a plate reader. The difference in fluorescence intensity between assay A and assay B (background) was obtained and the threshold was determined as 100. […]

[4] = test system: enzyme encoded by ClbP gene; experiment: Detection of ClbP enzyme / colibactin-producing E. coli in lyophilized fecal samples by fluorescent probe (Example 3); type: biochemical, Escherichia coli; details: probe 20 μM, lyophilized human feces suspended in milliQ water, 37° C., 24 hours or more, after extraction and unextracted
Experimental: The feces samples (obtained from different 4 human subjects) lyophilized were each scooped 10 times by a spoon (about 40 mg) and suspended in milliQ water (200 μl). To the suspension, the 20 mM DMSO solution of probe 1 was added so as to obtain a final concentration of 20 μM (DMSO final concentration 0.1%). Thereafter, the suspension was shaken at 37° C. and 100 rpm for 24 hours or more. After the reaction, the reaction solution (200 μLS) was taken and centrifuged. The supernatant (200 μL) was directly subjected to detection performed at λex380 mm/λem460 mm (unextracted). The reaction solution (200 μL) was newly taken, sufficiently suspended by adding ethyl acetate (500 μL) and centrifuged. The ethyl acetate layer (450 μL) of the supernatant was collected and concentrated. To the concentrate, milliQ water (200 μL) was added. The mixture was sufficiently suspended and centrifuged. The supernatant (200 μL) was subjected to detection performed at λex380 mm/λem460 mm (after extraction). In FIG. 2, the detection results of 4 fecal samples are shown separately by “feces is present_1” to “feces is present_4”, respectively.

Row | SMILES | detection of colibactin positive bacterium present in fecal samples [1] | detection of colibactin-producing Escherichia coli based on the fluorescence intensity of the probe [2] | accuracy of detecting a colibactin positive bacterium [3] [%] | false positive rate (a rate determining a negative bacterium as a positive bacterium) [3] | fluorescence of the probe on contact with feces (ClbP dependent cleavage to AMC) [4]
1 | CCCCCCCCCCCCCC(=O)NC(CC(N)=O)C(=O)Nc1ccc2c(C)cc(=O)oc2c1 (stereo not drawn) [probe 1] | highly sensitively and accurately detected | colibactin-producing Escherichia coli can be detected | 100 | less than 1% | fluorescence was regained
2 | CCCCCCCCCCCCCC(=O)N[C@H](CC(N)=O)C(=O)N[C@@H](C)C(=O)Nc1ccc2c(C)cc(=O)oc2c1 [probe 2] (Myristoyl-[dN]-Ala-{AMC}) | – | – | – | – | same results
